From EP1733731A1, “New uses of Glycerol derivatives in particular in cosmetics” (AGRO INDUSTRIE RECHERCHES ET DEVELOPPEMENTS (A.R.D.), priority 2005, dated 2006)

Target: T1, MMP-2 (Homo sapiens, UniProt P08253)
T1 construct: La proMMP-2 recombinante (12,5 ng/mL) est activée par l'APMA 10 mM pendant 16 heures à 4°C
T1 sequence (P08253 110-660): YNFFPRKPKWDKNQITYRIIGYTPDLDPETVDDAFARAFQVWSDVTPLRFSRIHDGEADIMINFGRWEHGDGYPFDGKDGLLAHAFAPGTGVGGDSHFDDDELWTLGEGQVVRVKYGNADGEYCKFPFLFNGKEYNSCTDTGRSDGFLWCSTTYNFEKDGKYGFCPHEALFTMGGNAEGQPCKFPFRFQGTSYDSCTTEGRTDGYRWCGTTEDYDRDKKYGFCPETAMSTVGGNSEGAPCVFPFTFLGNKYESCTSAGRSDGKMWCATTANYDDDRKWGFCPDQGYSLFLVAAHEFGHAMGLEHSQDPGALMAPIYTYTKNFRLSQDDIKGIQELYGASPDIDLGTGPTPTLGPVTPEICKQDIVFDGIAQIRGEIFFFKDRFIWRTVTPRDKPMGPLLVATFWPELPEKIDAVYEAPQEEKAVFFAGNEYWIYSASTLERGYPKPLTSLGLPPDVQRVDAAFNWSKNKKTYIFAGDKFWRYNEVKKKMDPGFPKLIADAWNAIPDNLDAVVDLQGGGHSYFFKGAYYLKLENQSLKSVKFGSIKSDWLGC
Experiment: MMP-2 activity on fluorescent synthetic substrate
Type: biochemical
Details: 25 µg/mL
Excerpt: L'inhibition de l'activité des gélatinases MMP-2 et MMP-9 par les acides gras insaturés à longue chaîne a pu être montré sur des coupes de peau. Ce phénomène implique à la fois des domaines spécifiques des gélatinases : les "Collagen Binding Domain" (CBD) et la double liaison des acides gras. L'interaction entre les gélatinases, via ces sites particuliers que sont les exosites (CBD), et l'acide gras, via son insaturation, entraîne une perte d'activité des gélatinases in vitro comme in vivo. La présence de double liaisons au niveau des chaînes latérales de ces glycolipides a conduit à cribler l'ensemble des composés de l'invention sur l'activité de la gélatinase-A ou MMP-2, car cette enzyme, bien qu'elle ne soit pas surexprimée au cours des vieillissements par les cellules dermiques, participe à la dégradation du tissu élastique responsable de la formation de rides. […]
La proMMP-2 recombinante (12,5 ng/mL) est activée par l'APMA 10 mM pendant 16 heures à 4°C puis préincubée 10 min en présence des différentes fractions et composés à tester : le substrat synthétique spécifique de la MMP-2 (Référence : M-1895, Bachem) est ensuite ajouté, à la concentration de 2 µM. Le clivage de ce substrat est estimé par mesure de la fluorescence émise après clivage (λexc = 326 nm; λem = 465 nm), à raison d'une lecture toutes les 2 minutes pendant 30 minutes. […]

SMILES: CCCCC/C=C\C/C=C\CCCCCCCCOC[C@H](CO[C@@H]1O[C@H](COC(=O)CCCCCCCCCCCCCCC)[C@H](O)[C@H](O)[C@H]1O)OCCCCCCCC/C=C\C/C=C\CCCCC [ED23-11, 1,2-di-O-linoléyl-3-O-[6'-O-palmitoyl-β-D-galactopyranosyl]-sn-glycérol]
- MMP-2 (Vi/Vo): > 1
